# Measured values: publication PMC11742080, “Decavanadate Compound Displays In Vitro and In Vivo Antitumor Effect on Melanoma Models” (Bioinorganic Chemistry and Applications, 2025)
# Like-named read-outs stand apart in the source and are kept apart here.
# Key:
# [1] = system: IGR37 human melanoma cells; assay: MTT cell viability assay, IGR37; type: cell-based
# Description: (§1) The MTT assay was first described as a sensitive, quantitative, and reliable colorimetric assay to measure the viability, proliferation, and activation of cells. Cell viability was assessed at 24 and 72 h of treatment to evaluate cytotoxicity and the effect on cell proliferation of the decavanadate compound, respectively. The concentrations of the decavanadate compound have been determined by weighing the compound in its crystal form and then solubilizing it in distilled water.
# (§2) All cell lines were seeded in 96-well plates (Nunc, Roskilde, Denmark) at a density of 10^4 cells per well and were incubated overnight, before treatment with different concentrations of the decavanadate compound. After 24 or 72 h of treatment, fresh media solution containing MTT at 0.5 mg/mL was added to cells and incubated for 3 h at 37°C. The formed formazan crystals were then dissolved in DMSO, and the absorbance was measured at 560 nm using a BioTek EON Microplate Spectrophotometer (Fisher Scientific). Cell viability was expressed as a percentage of the viable cell number of the untreated cells (control [CTR]).
# (§3) The concentration of the decavanadate compound required for 50% growth inhibition (IC50 value) was estimated as resulting in a 50% decrease in absorbance, compared to the CTR.
# [2] = system: IGR39 human melanoma cells; assay: MTT cell viability assay, IGR39; type: cell-based
# Description: as §1, §2, §3
# human SK-MEL-28 melanoma = settings: cited from earlier work
# [3] = system: murine B16-F10 melanoma cells; settings: cited from earlier work
# [4] = system: normal human keratinocyte cells (HaCaT); settings: cited from earlier work
# COLO829 melanoma cell = system: COLO829 melanoma cell; parameters: method as in PMID 32967177; settings: read-out: IC50, cell proliferation; cited from earlier work
# [5] = system: skin papillomas caused by the injection of DMBA and croton oil; parameters: method as in PMID 28010928; settings: 5 mg/kg; cited from earlier work
# A375 human melanoma cell = system: A375 human melanoma cell; parameters: method as in PMID 33132760; settings: A375, 24 h treatment, cited from earlier work
# [6] = system: allograft model of B16-F10 cells in mice; parameters: method as in PMID 29407869, PMID 6722991; settings: cited from earlier work
# IGR39 cells = settings: IGR39 proliferation; read-out: IC50, antiproliferative effect on IGR39; cited from earlier work
# [7] = system: UACC-62 human melanoma cells; settings: UACC-62, at 5 μM; cited from earlier work
compound,measurement,setting,value
"N.N.[Cl][Pt][Cl] [Cisplatin, cisplatin]",IC50,"[1]; IGR37, 24 h treatment",26.5 µM
same,"IC50, cell viability","[1]; IGR37, 24 h treatment",8 µg/mL
same,IC50,"[1]; IGR37, 72 h treatment",3 µM
same,"IC50, cell viability","[1]; IGR37, 72 h treatment",0.9 µg/mL
same,IC50,"[2]; IGR39, 24 h treatment",83 µM
same,"IC50, cell viability","[2]; IGR39, 24 h treatment",25 µg/mL
same,IC50,"[2]; IGR39, 72 h treatment",12.5 µM
same,"IC50, cell viability","[2]; IGR39, 72 h treatment",3.8 µg/mL
same,IC50,"human SK-MEL-28 melanoma; SKMEL28, 24 h",> 12.5 µM
same,IC50,"human SK-MEL-28 melanoma; SKMEL28, 72 h",9.5 µM
same,IC50,"[3]; B16-F10, 24 h",19.5 µM
same,IC50,"[3]; B16-F10, 72 h",10 µM
same,IC50,"[4]; HaCaT, 24 h",23.9 µM
same,IC50,"[4]; HaCaT, 72 h",23.9 µM
same,IC50,"[4]; keratinocyte cell line, 'was reported', no reference printed in the abstract",23.9 µM
CN(C)c1ccc(O)c2c1C[C@H]1C[C@H]3[C@H](N(C)C)C(O)=C(C(N)=O)C(=O)[C@@]3(O)C(O)=C1C2=O [Minocycline],IC50,COLO829 melanoma cell,13.9 µM
C[C@H]1c2cccc(O)c2C(=O)C2=C(O)[C@]3(O)C(=O)C(C(N)=O)=C(O)[C@@H](N(C)C)[C@@H]3[C@@H](O)[C@@H]21 [doxycycline],IC50,COLO829 melanoma cell,16.2 µM
[O]=[V]([O-])([O-])[O-] [orthovanadate],Incidence of skin papillomas,[5],partially inhibited the incidence of skin papillomas
C[C@@H]1O[C@@H](OC[C@H]2O[C@@H](Oc3c(-c4ccc(O)c(O)c4)oc4cc(O)cc(O)c4c3=O)[C@H](O)[C@@H](O)[C@@H]2O)[C@H](O)[C@H](O)[C@H]1O [rutoside],"IC50, cell viability",A375 human melanoma cell,about 100 μg/mL
same,IC50,"A375 human melanoma cell; read-out: IC50, cell viability",~163 µM
[O]=[V]([O-])([O-])[O-] [vanadate],Tumor size and incidence,[6],significantly decreased tumor size and their incidence
O=S(=O)([O-])[O-].[O]=[V+2] [vanadyl sulfate],Tumor size and incidence,[6],significantly decreased tumor size and their incidence
(C4N2H7)6(C4N2H6)2V10O28,IC50,IGR39 cells,7 µM
(NH4)4Li2V10O2810H2O,IC50,IGR39 cells,9.8 µM
Mg(H2O)6(C4N2H7)4V10O28·4H2O,IC50,IGR39 cells,2 µM
metformin–decavanadate [Metf-V10],Inhibition of proliferation,[7],80%
